According to patent US8669257B2, “Phenazine derivatives and uses thereof as potassium channel modulators” (The Johns Hopkins University, priority 2007, dated 2014):
Entries after “also recorded” stand apart in the source; their conditions may differ.

Key:
NFAT luciferase reporter = NFAT luciferase reporter assay in Jurkat T-cells; type: cell-based; details: Homo sapiens, PMA/ionomycin, FIG. 1C, n=6
Kv1.3 [1] = molecular target: T1, Kv1.3 (Homo sapiens, UniProt P22001); assay: Immunofluorescence colocalization in Jurkat T-cells; type: cell-based; details: plasma membrane of Jurkat T-cells
T1 construct: endogenous in cells; host or cells: Jurkat T-cells
T1 sequence (P22001 whole entry): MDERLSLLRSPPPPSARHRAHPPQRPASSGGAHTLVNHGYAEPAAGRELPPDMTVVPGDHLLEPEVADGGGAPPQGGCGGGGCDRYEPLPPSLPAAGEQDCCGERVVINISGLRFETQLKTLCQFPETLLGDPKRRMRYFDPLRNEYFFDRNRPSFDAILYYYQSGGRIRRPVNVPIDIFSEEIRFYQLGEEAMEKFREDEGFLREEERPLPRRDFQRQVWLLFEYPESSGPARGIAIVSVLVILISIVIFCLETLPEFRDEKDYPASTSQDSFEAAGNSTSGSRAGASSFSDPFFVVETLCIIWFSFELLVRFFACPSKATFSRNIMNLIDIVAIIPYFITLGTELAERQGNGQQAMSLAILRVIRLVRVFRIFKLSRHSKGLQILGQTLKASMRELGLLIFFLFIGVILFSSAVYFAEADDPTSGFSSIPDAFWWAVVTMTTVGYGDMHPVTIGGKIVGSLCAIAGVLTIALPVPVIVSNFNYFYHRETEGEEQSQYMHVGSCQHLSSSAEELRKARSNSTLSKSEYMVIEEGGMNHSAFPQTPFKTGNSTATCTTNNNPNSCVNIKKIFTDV
Description: Jurkat T-cells treated with clofazimine were centrifuged onto L-lysine-coated coverslips. Cells were fixed with 4% p-formaldehyde for 15 min. The cells were washed in PBS, permeabilized by −20° C. methanol and blocked with 10% donkey serum in PBS. The fixed cells were then incubated with Kv1.3 primary antibody (sc-17239 at 1:100 dilution) for 1 h. Cells were washed in PBS (3×5 min) and incubated with donkey anti-goat Cy5 antibodies for an additional 1 h. Cells were then washed three times in PBS, mounted, and photographed. Mounting was performed using Vectashield mounting medium (Vector Laboratories) and images were captured using either a Zeiss LSM510 confocal microscope. Merged images were compiled using LSM5 Image Examiner or Adobe Photoshop CS.

mouse Kv1.1 = molecular target: T2, mouse Kv1.1 (Mus musculus, UniProt P16388); assay: Patch-clamp of mouse Kv1.1 stably expressed in L929 cells; type: cell-based
T2 construct: expressed in transfected cells; host or cells: L929 cells
T2 sequence (P16388 whole entry): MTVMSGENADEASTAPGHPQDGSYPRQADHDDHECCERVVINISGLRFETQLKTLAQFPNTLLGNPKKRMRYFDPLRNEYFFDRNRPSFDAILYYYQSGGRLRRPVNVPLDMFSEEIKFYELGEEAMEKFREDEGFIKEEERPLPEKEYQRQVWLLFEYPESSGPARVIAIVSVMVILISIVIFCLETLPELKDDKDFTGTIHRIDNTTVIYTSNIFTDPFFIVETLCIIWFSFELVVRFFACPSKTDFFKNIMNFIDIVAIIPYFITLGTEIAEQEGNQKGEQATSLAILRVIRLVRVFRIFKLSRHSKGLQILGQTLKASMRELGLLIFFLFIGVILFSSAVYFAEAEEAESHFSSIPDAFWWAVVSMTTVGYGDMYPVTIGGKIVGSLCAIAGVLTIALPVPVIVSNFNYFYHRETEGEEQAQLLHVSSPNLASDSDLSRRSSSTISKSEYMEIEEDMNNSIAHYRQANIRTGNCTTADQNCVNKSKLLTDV
Description: (§1) Patch pipettes, pulled from glass capillaries (inner diameter 1.5 mm, Kimble products) with a horizontal puller (Sutter instruments, Modell P-97), were fire-polished, and had resistances between 2 and 4 MOhm. Patch-clamp experiments were performed in the tight-seal whole-cell configuration at room temperature (22-24° C.). High-resolution current recordings were acquired by a computer-based patch-clamp amplifier system (EPC-9, HEKA). Immediately following establishment of the whole-cell configuration, every two seconds voltage ramps of 50 ms duration spanning the voltage range of −100 to +100 mV for Jurkat T-cells and −150 to +150 mV for HEK293 were delivered from a holding potential (Vh) of −70 mV for Jurkats and 0 mV for HEK293 cells over a period of 300-600 s. […] Capacitive currents and series resistance were determined and corrected before each voltage ramp using the automatic capacitance compensation of the EPC-9. […] Kv1.3 currents in Jurkat T-cells were measured at +80 mV. Heterologously expressed Kv1.1, Kv1.2, Kv1.3, Kv1.5 and Kv3.1 were assessed at +80 mV except in Figure S7, where currents were additionally measured at the more physiological voltage of 0 mV. CRAC currents in HEK293 cells were assessed at −80 mV. […]

[2] = system: calcium oscillation in Jurkat T-cells; assay: Calcium oscillation in Jurkat T-cells (10 nM TG); type: cell-based, human; details: for cells with elongated calcium oscillation period: 10 nM TG, Jurkat T-cells
Description: JurkaT-cells were attached to L-lysine-coated glass dishes (MatTek). Cells were loaded with fura-2-AM (Invitrogen_F-1201) for 45 min before they were washed sequentially with growth medium and Ca^2+-free HBSS. Fluorescence excitation wavelengths were set at 350 and 380 nm, respectively, on a Zeiss Axiovert 200M microscope while emission wavelength was set at 510 nm. Changes in intracellular calcium concentrations were determined by fluorescence intensity ratio ([…]/F380).

[3] = molecular target: calcium-activated IKCa1 potassium channel (Homo sapiens, UniProt O15554); assay: Activity of IKCa1 channel (data not shown); type: cell-based; details: up to 10 μM
Chain of calcium-activated IKCa1 potassium channel (O15554 whole entry): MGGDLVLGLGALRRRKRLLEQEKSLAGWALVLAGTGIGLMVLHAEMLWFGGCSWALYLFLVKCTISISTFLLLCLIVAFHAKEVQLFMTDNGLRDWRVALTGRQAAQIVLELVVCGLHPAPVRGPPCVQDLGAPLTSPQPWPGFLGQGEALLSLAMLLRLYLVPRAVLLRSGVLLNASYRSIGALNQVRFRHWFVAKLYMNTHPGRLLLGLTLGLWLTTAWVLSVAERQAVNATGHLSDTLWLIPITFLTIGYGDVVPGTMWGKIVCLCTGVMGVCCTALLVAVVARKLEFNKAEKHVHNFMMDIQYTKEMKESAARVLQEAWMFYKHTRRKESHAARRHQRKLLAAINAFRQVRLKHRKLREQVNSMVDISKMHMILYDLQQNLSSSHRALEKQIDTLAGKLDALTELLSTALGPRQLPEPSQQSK

mouse primary T-cells = assay: IL-2 production from anti-CD3/anti-CD28-stimulated mouse primary T-cells; type: cell-based; details: n=3
rat Kv1.2 = molecular target: T3, rat Kv1.2 (Rattus norvegicus, UniProt P63142); assay: Patch-clamp of heterologous rat Kv1.2 expressed in B82 cells; type: cell-based
T3 construct: expressed in transfected cells; host or cells: B82 cells
T3 sequence (P63142 whole entry): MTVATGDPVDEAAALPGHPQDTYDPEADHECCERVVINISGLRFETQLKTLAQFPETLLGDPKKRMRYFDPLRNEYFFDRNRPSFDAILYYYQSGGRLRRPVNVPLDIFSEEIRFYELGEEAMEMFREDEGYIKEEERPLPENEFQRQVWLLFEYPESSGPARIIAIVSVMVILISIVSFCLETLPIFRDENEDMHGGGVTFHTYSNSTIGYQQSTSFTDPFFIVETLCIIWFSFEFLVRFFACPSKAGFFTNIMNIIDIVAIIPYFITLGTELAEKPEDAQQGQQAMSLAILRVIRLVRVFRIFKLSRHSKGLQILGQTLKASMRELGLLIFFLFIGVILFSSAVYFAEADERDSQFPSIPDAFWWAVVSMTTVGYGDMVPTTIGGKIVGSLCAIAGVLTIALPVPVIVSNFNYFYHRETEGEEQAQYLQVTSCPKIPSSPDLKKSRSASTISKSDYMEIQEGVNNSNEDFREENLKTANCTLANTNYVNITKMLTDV
Description: as §1

[4] = system: EGFP-NFATc3 nuclear translocation; assay: NFAT nuclear translocation in Jurkat T-cells stimulated by ionomycin; type: cell-based, human; details: 1 μM ionomycin
human Kv1.5 = molecular target: T4, human Kv1.5 (Homo sapiens, UniProt P22460); assay: Patch-clamp of heterologous human Kv1.5 expressed in MEL cells; type: cell-based
T4 construct: expressed in transfected cells; host or cells: MEL cells
T4 sequence (P22460 whole entry): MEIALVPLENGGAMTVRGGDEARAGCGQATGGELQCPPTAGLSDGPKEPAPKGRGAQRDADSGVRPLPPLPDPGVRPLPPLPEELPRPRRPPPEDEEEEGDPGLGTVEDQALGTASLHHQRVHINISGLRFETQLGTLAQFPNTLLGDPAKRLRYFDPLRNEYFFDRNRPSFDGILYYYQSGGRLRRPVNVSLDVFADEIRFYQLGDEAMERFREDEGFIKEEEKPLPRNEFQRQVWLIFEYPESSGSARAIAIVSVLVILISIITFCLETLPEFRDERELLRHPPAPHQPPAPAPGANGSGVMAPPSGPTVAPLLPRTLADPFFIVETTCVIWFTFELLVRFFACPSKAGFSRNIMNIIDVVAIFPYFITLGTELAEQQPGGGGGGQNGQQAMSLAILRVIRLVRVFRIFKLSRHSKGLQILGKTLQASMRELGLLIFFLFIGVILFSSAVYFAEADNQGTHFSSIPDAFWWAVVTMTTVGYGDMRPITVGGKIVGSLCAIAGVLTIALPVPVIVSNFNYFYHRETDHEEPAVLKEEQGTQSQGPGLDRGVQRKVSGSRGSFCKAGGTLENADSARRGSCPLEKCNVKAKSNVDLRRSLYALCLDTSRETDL
Description: as §1

TRPM4 channel = TRPM4 channel (Homo sapiens, UniProt Q8TD43); assay: Activity of TRPM4 channel (data not shown); type: cell-based; details: up to 10 μM
Chain of TRPM4 channel (Q8TD43 whole entry): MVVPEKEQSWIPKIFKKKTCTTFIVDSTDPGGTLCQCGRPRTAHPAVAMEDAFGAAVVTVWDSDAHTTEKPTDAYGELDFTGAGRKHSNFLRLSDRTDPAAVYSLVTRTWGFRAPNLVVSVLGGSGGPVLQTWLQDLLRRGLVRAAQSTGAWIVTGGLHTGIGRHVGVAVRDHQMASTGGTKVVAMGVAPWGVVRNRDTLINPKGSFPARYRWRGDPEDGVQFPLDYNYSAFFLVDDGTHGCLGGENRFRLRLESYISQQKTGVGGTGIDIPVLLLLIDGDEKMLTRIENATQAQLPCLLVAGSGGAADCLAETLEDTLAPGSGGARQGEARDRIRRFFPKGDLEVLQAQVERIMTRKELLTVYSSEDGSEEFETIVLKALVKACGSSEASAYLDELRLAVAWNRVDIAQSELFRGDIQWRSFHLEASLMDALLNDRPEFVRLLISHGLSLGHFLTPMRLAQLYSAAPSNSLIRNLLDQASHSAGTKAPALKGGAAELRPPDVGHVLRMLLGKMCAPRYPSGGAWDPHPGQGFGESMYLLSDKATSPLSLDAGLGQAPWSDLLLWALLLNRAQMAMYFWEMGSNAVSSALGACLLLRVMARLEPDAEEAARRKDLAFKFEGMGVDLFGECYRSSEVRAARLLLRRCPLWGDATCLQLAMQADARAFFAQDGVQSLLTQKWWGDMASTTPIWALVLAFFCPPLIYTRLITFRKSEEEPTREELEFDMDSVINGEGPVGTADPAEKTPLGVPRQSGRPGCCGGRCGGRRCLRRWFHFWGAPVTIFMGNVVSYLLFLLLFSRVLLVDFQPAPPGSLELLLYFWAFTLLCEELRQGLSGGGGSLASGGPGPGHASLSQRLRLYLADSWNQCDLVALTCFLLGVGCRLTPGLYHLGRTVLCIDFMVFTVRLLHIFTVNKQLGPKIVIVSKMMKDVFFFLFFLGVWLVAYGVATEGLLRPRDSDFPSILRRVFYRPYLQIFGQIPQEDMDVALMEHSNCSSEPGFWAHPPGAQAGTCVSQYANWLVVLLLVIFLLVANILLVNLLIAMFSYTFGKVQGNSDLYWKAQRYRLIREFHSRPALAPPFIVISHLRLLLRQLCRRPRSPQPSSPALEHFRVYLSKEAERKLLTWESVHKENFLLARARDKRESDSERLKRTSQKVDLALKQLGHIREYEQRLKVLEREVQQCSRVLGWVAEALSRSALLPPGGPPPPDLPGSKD

[5] = system: calcineurin-NFATc2 interaction; assay: GST-NFATc2 pull-down of calcineurin; type: binding
Kv1.3 [6] = molecular target: T1, Kv1.3; assay: Patch-clamp of Kv1.3 currents in Jurkat T-cells; type: cell-based
Description: as §1

[7] = system: graft versus host disease; details: open label study; cited from earlier work
[8] = system: NF-κB luciferase reporter; assay: NF-κB luciferase reporter assay in Jurkat T-cells; type: cell-based, human; details: FIG. 1C

In the case of `CC(C)/N=c1\cc2n(-c3ccc(Cl)cc3)c3ccccc3nc-2cc1Nc1ccc(Cl)cc1` [clofazimine, Clofazimine], the IC50 (NFAT luciferase reporter) is reported as 113 ± 30 nM, the “subcellular localization relative to Kv1.3” value (Kv1.3 [1]) is reported as “same subcellular localization pattern” and the “subcellular localization relative to Kv1.3” value (Kv1.3 [1]; listed as Clofazimine) is reported as “colocalizes with Kv1.3”. For the same compound, the “block of current, mouse Kv1.1” value (mouse Kv1.1; 10 μM) was “less than 50%”, the IC50 (mouse Kv1.1; inferred from block at 10 μM) was greater than 10000 nM and the “cells with elongated calcium oscillation period” value [2] was “Over 80%”. For the same compound, the “cells with elongated calcium oscillation period” value ([2]; listed as Clofazimine) was “more than 80%”, the “effect on calcium oscillation pattern” value ([2]; low concentration of thapsigargin) was “decreased the amplitude and increased the period” and the “effect on IKCa1 channel activity” value [3] was “remained unaffected”. The “inhibition of IL-2 production in primary mouse T-cells” value (mouse primary T-cells) was “failed to observe a dose-dependent inhibition”, the “block of current, rat Kv1.2” value (rat Kv1.2; 10 μM) was “less than 50%” and the IC50 (rat Kv1.2; inferred from block at 10 μM) was greater than 10000 nM. The “effect on NFAT nuclear translocation” value [4] was “blocked the ionomycin-induced nuclear translocation”, the “effect on NFAT nuclear translocation” value ([4]; listed as Clofazimine) was “inhibits EGFP-NFATc3 nuclear translocation” and the “block of current, human Kv1.5” value (human Kv1.5; 10 μM) was “less than 50%”. For the same compound, the IC50 (human Kv1.5; inferred from block at 10 μM) was greater than 10000 nM, the “effect on TRPM4 channel activity” value (TRPM4 channel) was “remained unaffected” and the “effect on binding of GST-NFATc2 to calcineurin” value [5] was “Nor did it affect the binding; also recorded: does not interfere with calcineurin-NFATc2 interaction”. For the same compound, the “Hill coefficient, Kv1.3 current” value (Kv1.3 [6]) was 0.75, the IC50 (Kv1.3 [6]; current at +80 mV, inhibition at 120 s, read-out: IC50, Kv1.3 potassium current) was 300 nM and the “patients able to decrease the amount of other medication” value [7] was roughly 25%. For the same compound, the “NF-κB luciferase reporter less sensitive than IL-2 promoter-driven reporter” value [8] was “about 40 fold” and the IC50 ([8]; Homo sapiens, Jurkat, PMA/ionomycin, n=6) was 2430 ± 1250 nM.
